Assays:
Type in all cases: cell-based
[1] = target: T1, EGFR exon 20 SVD Ins D770_N771 (Ba/F3 cells) (Homo sapiens, UniProt P00533, INS770SVD); experiment: Inhibitor activity on EGFR-dependent cell growth (CellTiter-Glo, 72 h), Ba/F3 EGFR exon 20 SVD Ins; conditions: read-out: BaF3 SVD IC50
T1 construct: expressed in transfected cells; host or cells: Ba/F3 (murine pro-B cells), retroviral transduction, puromycin selection, IL3-independent pool
How it was run: (§1)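 IC50s derive from a sigmoidal dose–response fit of CellTiter-Glo signal. The signal was normalised between […]-treated cells and cell-free medium. Ba/F3 mutant-EGFR cells, seeded at 400–800/well depending on the line, had 72 h of exposure to a 10-point, 3-fold compound series.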

[2] = target: T2, EGFR exon 20 ASV Ins V769_D770 (Ba/F3 cells) (Homo sapiens, UniProt P00533, INS769ASV); experiment: Inhibitor activity on EGFR phosphorylation (pEGFR AlphaLISA, 2 h), Ba/F3 EGFR exon 20 ASV Ins; conditions: EGFR phosphorylation, AlphaLISA, 2 hours; read-out: ASV IC50 (pEGFR)
T2 construct: expressed in transfected cells; host or cells: Ba/F3 (murine pro-B cells), retroviral transduction, puromycin selection, IL3-independent pool
How it was run: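 Steps: seed cells (Ba/F3 50K, CUTO14 12.5K per well); add 3-fold, 10-point compound dilution; incubate 2 h; lyse 1 hr; add acceptor then donor beads (1.5 hrs, RT, dark); read AlphaLISA signal for IC50.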

[3] = target: T3, EGFR exon 20 FQEA Ins A763_V764 (Ba/F3 cells) (Homo sapiens, UniProt P00533, INS763FQEA); experiment: Inhibitor activity on EGFR-dependent cell growth (CellTiter-Glo, 72 h), Ba/F3 EGFR exon 20 FQEA Ins; conditions: read-out: BaF3 FQEA IC50
T3 construct: expressed in transfected cells; host or cells: Ba/F3 (murine pro-B cells), retroviral transduction, puromycin selection, IL3-independent pool
How it was run: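 Mutant EGFR drives IL3-independent growth of engineered Ba/F3 pools. L858R cells go in at 400/well, L858R/C797S at 600, and exon 19del or FQEA insertion at 800. After 72 h with compound, plates are equilibrated 15 min at RT. Reagent is added 1:1, followed by 30 min and a luminescence read.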

[4] = target: T4, EGFR exon 20 NPG Ins D770_N771 (Ba/F3 cells) (Homo sapiens, UniProt P00533, INS770NPG); experiment: Inhibitor activity on EGFR-dependent cell growth (CellTiter-Glo, 72 h), Ba/F3 EGFR exon 20 NPG Ins; conditions: read-out: BaF3 NPG IC50
T4 construct: expressed in transfected cells; host or cells: Ba/F3 (murine pro-B cells), retroviral transduction, puromycin selection, IL3-independent pool
How it was run: as §1

EGFR WT (Ba/F3 cells) = target: T5, EGFR WT (Ba/F3 cells) (Homo sapiens, UniProt P00533); experiment: Inhibitor activity on EGFR-dependent cell growth (CellTiter-Glo, 72 h), Ba/F3 EGFR WT; conditions: read-out: BaF3 WT IC50
T5 construct: expressed in transfected cells; host or cells: Ba/F3 (murine pro-B cells), retroviral transduction, puromycin selection, maintained with EGF
How it was run: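 This growth assay used Ba/F3 cells that depend on wild-type EGFR and are kept in EGF without IL3. Compounds were made up as 10 mM DMSO stocks and diluted 3-fold over 10 points. 120 nL went onto 600 cells/well. After 72 hours, 40 μL CellTiter-Glo was added and luminescence read on EnVision after 30 min.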

[5] = target: T2, EGFR exon 20 ASV Ins V769_D770 (Ba/F3 cells); experiment: Inhibitor activity on EGFR-dependent cell growth (CellTiter-Glo, 72 h), Ba/F3 EGFR exon 20 ASV Ins; conditions: read-out: BaF3 ASV IC50
How it was run: as §1

T1 sequence (P00533 with tags, fused parts or gaps INS770SVD): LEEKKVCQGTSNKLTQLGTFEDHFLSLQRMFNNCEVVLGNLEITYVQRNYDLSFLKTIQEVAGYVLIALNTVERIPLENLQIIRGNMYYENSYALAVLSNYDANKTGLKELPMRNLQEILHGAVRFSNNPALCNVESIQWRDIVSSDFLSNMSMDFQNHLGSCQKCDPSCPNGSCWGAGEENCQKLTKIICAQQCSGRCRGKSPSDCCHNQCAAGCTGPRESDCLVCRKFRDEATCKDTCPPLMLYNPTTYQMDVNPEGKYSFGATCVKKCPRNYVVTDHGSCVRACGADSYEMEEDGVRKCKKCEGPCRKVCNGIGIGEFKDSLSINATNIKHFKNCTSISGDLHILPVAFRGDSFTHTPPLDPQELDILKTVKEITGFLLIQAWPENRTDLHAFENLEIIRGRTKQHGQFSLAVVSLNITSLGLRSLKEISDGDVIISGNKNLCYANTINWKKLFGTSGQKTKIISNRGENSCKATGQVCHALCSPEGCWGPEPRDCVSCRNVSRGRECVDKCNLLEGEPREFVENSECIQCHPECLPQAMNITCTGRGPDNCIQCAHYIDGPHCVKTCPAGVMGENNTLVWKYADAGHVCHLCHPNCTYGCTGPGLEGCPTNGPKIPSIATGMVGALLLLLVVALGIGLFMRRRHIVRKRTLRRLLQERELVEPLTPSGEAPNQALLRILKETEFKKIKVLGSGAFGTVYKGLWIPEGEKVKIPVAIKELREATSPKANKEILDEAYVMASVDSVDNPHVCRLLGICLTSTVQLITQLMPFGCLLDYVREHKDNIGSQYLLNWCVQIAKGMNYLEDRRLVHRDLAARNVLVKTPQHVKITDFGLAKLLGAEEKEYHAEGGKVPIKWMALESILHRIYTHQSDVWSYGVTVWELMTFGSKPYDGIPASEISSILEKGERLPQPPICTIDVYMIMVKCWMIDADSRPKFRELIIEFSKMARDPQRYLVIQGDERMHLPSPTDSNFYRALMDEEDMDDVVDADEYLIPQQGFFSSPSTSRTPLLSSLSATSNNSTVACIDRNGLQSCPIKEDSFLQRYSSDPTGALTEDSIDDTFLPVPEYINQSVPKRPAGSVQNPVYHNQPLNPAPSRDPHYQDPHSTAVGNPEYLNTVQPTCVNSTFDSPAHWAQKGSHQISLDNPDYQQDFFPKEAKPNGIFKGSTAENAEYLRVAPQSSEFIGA
T3 sequence (P00533 with tags, fused parts or gaps INS763FQEA): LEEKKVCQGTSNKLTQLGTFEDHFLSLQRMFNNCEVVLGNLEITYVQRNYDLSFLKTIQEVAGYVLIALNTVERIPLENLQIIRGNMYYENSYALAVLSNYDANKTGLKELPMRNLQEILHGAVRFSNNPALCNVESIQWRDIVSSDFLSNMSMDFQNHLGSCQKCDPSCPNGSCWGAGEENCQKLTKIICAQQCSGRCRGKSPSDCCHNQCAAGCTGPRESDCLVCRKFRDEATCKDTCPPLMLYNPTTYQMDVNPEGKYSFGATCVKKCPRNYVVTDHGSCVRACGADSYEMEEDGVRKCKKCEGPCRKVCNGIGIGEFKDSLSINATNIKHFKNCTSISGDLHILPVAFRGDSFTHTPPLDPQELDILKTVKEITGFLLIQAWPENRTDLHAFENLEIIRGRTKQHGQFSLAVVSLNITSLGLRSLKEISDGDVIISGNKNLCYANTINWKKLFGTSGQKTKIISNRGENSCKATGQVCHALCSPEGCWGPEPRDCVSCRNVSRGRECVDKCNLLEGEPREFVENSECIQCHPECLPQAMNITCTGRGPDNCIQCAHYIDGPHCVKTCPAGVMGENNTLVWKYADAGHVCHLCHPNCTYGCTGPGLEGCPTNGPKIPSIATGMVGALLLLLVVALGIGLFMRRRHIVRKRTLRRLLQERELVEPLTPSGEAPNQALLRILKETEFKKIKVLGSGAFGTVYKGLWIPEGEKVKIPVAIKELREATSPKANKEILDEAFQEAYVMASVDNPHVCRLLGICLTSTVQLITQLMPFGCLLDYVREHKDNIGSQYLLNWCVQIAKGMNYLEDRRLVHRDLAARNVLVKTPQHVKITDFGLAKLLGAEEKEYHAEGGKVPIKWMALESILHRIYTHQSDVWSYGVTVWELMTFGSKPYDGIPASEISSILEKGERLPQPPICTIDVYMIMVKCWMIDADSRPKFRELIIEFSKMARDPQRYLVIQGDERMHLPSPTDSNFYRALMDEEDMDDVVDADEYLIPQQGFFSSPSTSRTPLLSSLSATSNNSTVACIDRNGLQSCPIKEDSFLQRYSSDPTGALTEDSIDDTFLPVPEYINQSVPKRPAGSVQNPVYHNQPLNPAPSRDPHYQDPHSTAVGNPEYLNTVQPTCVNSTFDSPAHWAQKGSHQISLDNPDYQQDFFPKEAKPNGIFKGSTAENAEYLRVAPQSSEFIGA
T5 sequence (P00533 25-1210): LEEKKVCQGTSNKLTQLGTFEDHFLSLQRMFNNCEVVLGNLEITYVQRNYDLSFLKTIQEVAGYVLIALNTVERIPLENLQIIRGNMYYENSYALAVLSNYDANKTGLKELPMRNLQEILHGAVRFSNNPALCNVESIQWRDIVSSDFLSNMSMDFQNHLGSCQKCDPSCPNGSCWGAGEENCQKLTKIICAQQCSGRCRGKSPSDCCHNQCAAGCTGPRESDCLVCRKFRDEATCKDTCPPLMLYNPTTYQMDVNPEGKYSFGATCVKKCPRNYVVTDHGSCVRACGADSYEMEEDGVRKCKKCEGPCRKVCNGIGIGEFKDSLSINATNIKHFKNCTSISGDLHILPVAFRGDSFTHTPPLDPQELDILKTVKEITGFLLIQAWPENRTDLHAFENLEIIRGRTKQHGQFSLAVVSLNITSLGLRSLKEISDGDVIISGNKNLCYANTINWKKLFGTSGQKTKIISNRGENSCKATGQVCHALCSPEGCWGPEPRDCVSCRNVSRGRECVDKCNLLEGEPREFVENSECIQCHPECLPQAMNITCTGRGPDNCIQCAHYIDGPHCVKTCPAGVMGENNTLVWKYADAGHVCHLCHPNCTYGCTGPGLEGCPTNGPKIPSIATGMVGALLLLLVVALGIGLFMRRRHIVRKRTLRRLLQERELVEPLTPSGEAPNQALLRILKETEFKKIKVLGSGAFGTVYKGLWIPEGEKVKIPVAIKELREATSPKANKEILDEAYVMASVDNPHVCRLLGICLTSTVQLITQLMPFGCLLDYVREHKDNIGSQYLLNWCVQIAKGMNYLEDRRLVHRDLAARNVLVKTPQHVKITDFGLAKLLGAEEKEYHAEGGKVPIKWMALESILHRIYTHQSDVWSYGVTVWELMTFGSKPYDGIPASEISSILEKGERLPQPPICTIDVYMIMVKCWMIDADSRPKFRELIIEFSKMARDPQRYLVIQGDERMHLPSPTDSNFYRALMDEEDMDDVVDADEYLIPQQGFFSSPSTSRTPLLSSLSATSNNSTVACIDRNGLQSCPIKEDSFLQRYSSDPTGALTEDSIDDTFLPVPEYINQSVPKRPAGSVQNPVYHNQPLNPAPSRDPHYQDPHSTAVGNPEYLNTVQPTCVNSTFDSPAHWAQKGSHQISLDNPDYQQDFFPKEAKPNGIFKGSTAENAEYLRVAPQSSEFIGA
T2 sequence (P00533 with tags, fused parts or gaps INS769ASV): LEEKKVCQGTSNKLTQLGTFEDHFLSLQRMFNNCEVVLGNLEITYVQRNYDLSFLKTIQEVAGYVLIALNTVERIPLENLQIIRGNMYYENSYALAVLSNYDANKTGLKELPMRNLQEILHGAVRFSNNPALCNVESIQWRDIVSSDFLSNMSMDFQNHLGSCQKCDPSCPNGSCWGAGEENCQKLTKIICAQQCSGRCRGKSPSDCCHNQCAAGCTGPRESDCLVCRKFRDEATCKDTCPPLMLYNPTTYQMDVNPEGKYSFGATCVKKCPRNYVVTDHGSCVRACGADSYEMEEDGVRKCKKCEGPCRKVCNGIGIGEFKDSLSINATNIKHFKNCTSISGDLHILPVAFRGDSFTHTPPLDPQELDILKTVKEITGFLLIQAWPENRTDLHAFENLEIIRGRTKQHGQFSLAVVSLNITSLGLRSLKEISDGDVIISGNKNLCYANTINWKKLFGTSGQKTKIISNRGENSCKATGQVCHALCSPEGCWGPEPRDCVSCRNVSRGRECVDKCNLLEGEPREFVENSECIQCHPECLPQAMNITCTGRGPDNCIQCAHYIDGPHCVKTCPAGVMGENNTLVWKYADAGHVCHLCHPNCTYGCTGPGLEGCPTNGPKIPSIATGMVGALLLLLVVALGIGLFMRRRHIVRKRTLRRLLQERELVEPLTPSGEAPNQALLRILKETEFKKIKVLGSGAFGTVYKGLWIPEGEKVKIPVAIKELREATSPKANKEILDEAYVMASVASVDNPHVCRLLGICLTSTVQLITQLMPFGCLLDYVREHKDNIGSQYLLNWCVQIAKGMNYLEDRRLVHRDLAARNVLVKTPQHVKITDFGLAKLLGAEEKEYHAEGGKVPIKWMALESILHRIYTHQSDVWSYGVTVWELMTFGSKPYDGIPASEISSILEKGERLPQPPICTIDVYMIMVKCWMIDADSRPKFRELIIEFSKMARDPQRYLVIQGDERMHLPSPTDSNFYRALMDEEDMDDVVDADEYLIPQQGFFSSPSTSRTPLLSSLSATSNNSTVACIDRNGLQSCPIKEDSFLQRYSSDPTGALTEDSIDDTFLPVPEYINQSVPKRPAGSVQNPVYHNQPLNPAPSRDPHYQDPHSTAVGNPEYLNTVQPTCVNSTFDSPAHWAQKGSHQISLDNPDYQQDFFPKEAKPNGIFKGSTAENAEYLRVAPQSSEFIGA

Compound | IC50 [1] [nM] | IC50 [2] [nM] | IC50 [3] [nM] | IC50 [4] [nM] | IC50 (EGFR WT (Ba/F3 cells)) [nM] | IC50 [5] [nM]
COc1c(Cl)cccc1Nc1c(-c2ccnc(NCC(F)F)n2)[nH]c2c1C(=O)NCC2 [Compound 702, 3-[(3-chloro-2-methoxyphenyl)amino]-2-[2-[(2,2-difluoroethyl)amino]pyrimidin-4-yl]-1H,5H,6H,7H-pyrrolo[3,2-c]pyridin-4-one] | 100 to 1000 | 100 to 1000 | 100 to 1000 | 100 to 1000 | > 1000 | 100 to 1000
COc1c(F)cccc1Nc1c(-c2ccnc3ccc(NC(C)(C)C)nc23)[nH]c2c1C(=O)NCC2 [Compound 694, 2-[6-(tert-butylamino)-1,5-naphthyridin-4-yl]-3-[(3-fluoro-2-methoxyphenyl)amino]-1H,5H,6H,7H-pyrrolo[3,2-c]pyridin-4-one] | < 100 | < 100 | < 100 | < 100 | < 100 | < 100
COc1c(F)cccc1Nc1c(-c2snc3cccnc23)[nH]c2c1C(=O)NCC2 [Compound 156, 3-((3-fluoro-2-methoxyphenyl)amino)-2-(isothiazolo[4,3-b]pyridin-3-yl)-1,5,6,7-tetrahydro-4H-pyrrolo[3,2-c]pyridin-4-one] | > 1000 | > 1000 | > 1000 | > 1000 | > 1000 | > 1000
COc1c(Cl)cccc1Nc1c(-c2ccnc(NCC(F)(F)F)n2)[nH]c2c1C(=O)NCC2 [Compound 701, 3-[(3-chloro-2-methoxyphenyl)amino]-2-[2-[(2,2,2-trifluoroethyl)amino]pyrimidin-4-yl]-1H,5H,6H,7H-pyrrolo[3,2-c]pyridin-4-one] | > 1000 | 100 to 1000 | > 1000 | > 1000 | > 1000 | > 1000
Nc1nccc(-c2[nH]c3c(c2Nc2cccc(C(F)(F)F)c2)C(=O)NCC3)n1 [compound 199] | > 1000 | 100 to 1000 | 100 to 1000 | 100 to 1000 | > 1000 | > 1000
COc1c(F)cccc1Nc1c(-c2nc(N)ncc2F)[nH]c2c1C(=O)NCC2 [Compound 688, 2-(2-amino-5-fluoropyrimidin-4-yl)-3-[(3-fluoro-2-methoxyphenyl)amino]-1H,5H,6H,7H-pyrrolo[3,2-c]pyridin-4-one] | > 1000 | > 1000 | > 1000 | > 1000 | > 1000 | > 1000
COc1c(F)cccc1Nc1c(-c2ccnc3ccc(OC4CC4)nc23)[nH]c2c1C(=O)NCC2 [Compound 696, 2-(6-cyclopropoxy-1,5-naphthyridin-4-yl)-3-[(3-fluoro-2-methoxyphenyl)amino]-1H,5H,6H,7H-pyrrolo[3,2-c]pyridin-4-one; trifluoroacetic acid] | < 100 | < 100 | < 100 | < 100 | < 100 | < 100
COc1c(Cl)cccc1Nc1c(-c2ccnc(NC(=O)c3cccc(F)c3)n2)[nH]c2c1C(=O)NCC2 [compound 102] | 100 to 1000 | < 100 | 100 to 1000 | 100 to 1000 | > 1000 | 100 to 1000
COc1c(Cl)cccc1Nc1c(-c2ccnc3[nH]ccc23)[nH]c2c1C(=O)NCC2 [compound 218] | 100 to 1000 | < 100 | 100 to 1000 | > 1000 | > 1000 | 100 to 1000
COc1c(Cl)cccc1Nc1c(-c2ccnc(NCCN(C)C)n2)[nH]c2c1C(=O)NCC2 [Compound 707, 3-((3-chloro-2-methoxyphenyl)amino)-2-(2-((2-(dimethylamino)ethyl)amino)pyrimidin-4-yl)-1,5,6,7-tetrahydro-4H-pyrrolo[3,2-c]pyridin-4-one] | > 1000 | > 1000 | > 1000 | > 1000 | > 1000 | > 1000
COc1c(Cl)cccc1Nc1c(-c2ccnc(NC3CC3)n2)[nH]c2c1C(=O)NCC2 [compound 112] | 100 to 1000 | < 100 | 100 to 1000 | > 1000 | > 1000 | 100 to 1000
COc1c(F)cccc1Nc1c(-c2ccnc3ccc(N(C)C)nc23)[nH]c2c1C(=O)NCC2 [Compound 697, 2-[6-(dimethylamino)-1,5-naphthyridin-4-yl]-3-[(3-fluoro-2-methoxyphenyl)amino]-1H,5H,6H,7H-pyrrolo[3,2-c]pyridin-4-one] | < 100 | < 100 | < 100 | < 100 | < 100 | < 100

The remaining lines, values ahead:

IC50 [1] [nM] | IC50 [2] [nM] | IC50 [3] [nM] | IC50 [4] [nM] | IC50 (EGFR WT (Ba/F3 cells)) [nM] | IC50 [5] [nM] | Compound
> 1000 | > 1000 | > 1000 | > 1000 | > 1000 | > 1000 | COc1c(Cl)cccc1Nc1c(-c2ncnc3[nH]ccc23)[nH]c2c1C(=O)NCC2 [compound 289]
> 1000 | 100 to 1000 | 100 to 1000 | > 1000 | > 1000 | 100 to 1000 | COc1c(Cl)cccc1Nc1c(-c2nc(N)ncc2F)[nH]c2c1C(=O)NCC2 [compound 295]
100 to 1000 | 100 to 1000 | > 1000 | 100 to 1000 | > 1000 | 100 to 1000 | COc1c(Cl)cccc1Nc1c(-c2ccnc(NC(C)C)n2)[nH]c2c1C(=O)NCC2 [compound 225]
> 1000 | 100 to 1000 | > 1000 | > 1000 | > 1000 | > 1000 | COc1c(Cl)cccc1Nc1c(-c2ccnc(NC[C@@H]3CCCO3)n2)[nH]c2c1C(=O)NCC2 [compound 722, 3-[(3-chloro-2-methoxyphenyl)amino]-2-(2-[[(2S)-oxolan-2-ylmethyl]amino]pyrimidin-4-yl)-1H,5H,6H,7H-pyrrolo[3,2-c]pyridin-4-one]
100 to 1000 | < 100 | 100 to 1000 | 100 to 1000 | > 1000 | 100 to 1000 | COc1c(Cl)cccc1Nc1c(-c2ccnc3c2OCCN3)[nH]c2c1C(=O)NCC2 [compound 292]
< 100 | < 100 | < 100 | < 100 | < 100 | < 100 | COc1nn(C)cc1Nc1nccc(-c2[nH]c3c(c2Nc2cccc(Cl)c2OC)C(=O)NCC3)n1 [compound 219]
> 1000 | 100 to 1000 | > 1000 | > 1000 | > 1000 | > 1000 | COc1c(Cl)cccc1Nc1c(-c2ccnc(NC[C@H]3CCCO3)n2)[nH]c2c1C(=O)NCC2 [compound 721, (R)-3-((3-chloro-2-methoxyphenyl)amino)-2-(2-(((tetrahydrofuran-2-yl)methyl)amino)pyrimidin-4-yl)-1,5,6,7-tetrahydro-4H-pyrrolo[3,2-c]pyridin-4-one]
100 to 1000 | < 100 | 100 to 1000 | 100 to 1000 | > 1000 | 100 to 1000 | COc1c(Cl)cccc1Nc1c(-c2ccnc(NCCF)n2)[nH]c2c1C(=O)NCC2 [compound 710, 3-[(3-chloro-2-methoxyphenyl)amino]-2-[2-[(2-fluoroethyl)amino]pyrimidin-4-yl]-1H,5H,6H,7H-pyrrolo[3,2-c]pyridin-4-one]

Source: patent US20240101576A1, “HETEROCYCLIC INHIBITORS OF EGFR AND/OR HER2, FOR USE IN THE TREATMENT OF CANCER” (Scorpion Therapeutics, Inc., priority 2020, published 2024)
